Experimental data published in patent publication US9884063B2, “Amido-substituted azole compounds” (Bayer Pharma Aktiengesellschaft, priority 2014, dated 2018).
pIC50: −log10 of the molar value.

Columns and labels:
[1] = target: T1, TNKS2 (Homo sapiens, UniProt Q9H2K2); assay: Modified TNKS2 Assay 2 (auto-parsylation, [3H]-NAD+ SPA); type: biochemical; conditions: 6 nM TNKS2, 96 well
T1 sequence (Q9H2K2 1-1166): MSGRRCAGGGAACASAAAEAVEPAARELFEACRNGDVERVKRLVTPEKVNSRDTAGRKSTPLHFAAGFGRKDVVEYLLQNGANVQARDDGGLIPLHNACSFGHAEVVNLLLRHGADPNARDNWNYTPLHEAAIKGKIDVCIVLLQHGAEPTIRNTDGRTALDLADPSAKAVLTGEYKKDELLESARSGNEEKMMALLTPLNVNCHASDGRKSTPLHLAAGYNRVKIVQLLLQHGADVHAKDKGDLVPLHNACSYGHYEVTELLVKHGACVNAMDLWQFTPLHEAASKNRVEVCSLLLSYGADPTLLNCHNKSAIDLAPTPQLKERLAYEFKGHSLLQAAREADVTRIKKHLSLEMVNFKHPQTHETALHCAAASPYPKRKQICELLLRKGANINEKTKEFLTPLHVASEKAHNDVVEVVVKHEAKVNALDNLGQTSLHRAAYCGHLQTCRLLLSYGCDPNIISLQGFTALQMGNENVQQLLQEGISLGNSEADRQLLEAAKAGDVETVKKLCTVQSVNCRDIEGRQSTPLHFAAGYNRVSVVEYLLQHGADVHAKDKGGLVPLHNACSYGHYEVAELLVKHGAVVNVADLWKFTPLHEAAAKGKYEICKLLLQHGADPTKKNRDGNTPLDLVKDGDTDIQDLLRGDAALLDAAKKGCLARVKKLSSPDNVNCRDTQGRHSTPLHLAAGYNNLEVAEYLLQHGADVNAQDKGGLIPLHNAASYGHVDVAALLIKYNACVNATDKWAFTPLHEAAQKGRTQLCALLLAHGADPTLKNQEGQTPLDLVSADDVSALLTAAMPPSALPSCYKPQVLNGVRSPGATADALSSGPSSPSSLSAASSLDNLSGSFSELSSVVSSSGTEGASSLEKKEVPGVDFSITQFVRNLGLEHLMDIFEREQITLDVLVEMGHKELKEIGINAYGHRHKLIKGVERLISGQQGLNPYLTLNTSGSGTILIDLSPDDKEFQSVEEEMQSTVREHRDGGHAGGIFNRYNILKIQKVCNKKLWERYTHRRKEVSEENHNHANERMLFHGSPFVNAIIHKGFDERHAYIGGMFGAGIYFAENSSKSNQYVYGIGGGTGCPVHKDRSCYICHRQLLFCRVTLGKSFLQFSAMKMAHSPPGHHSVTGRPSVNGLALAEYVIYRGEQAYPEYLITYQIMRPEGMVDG

[2] = tested on: wildtype Wnt signaling cascade; assay: HEK293 TOP Assay (Super TopFlash luciferase reporter, Wnt-3a stimulated); type: cell-based; conditions: Homo sapiens, HEK293, 16 h
Procedure, shortened: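 HEK293 cells stably carrying Super TopFlash (TOP) or FOP reporter, stimulated with recombinant human Wnt-3a (2500–5 ng/ml, two-fold steps). Both lines incubated in parallel with compound from 50 μM to 15 nM (3.16-fold) in CAFTY buffer pH 7.4 with 2 mM Ca2+ and 0.01% BSA; selectivity judged TOP vs FOP.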

[3] = HEK293 TOP reporter cell line, Wnt-3a at EC50, 16 hours incubation, compound dilution series 50 μM to 15 nM
[4] = HEK293 TOP reporter cells, Wnt3a at EC50, 16 hours, luciferase

Row | Structure (SMILES) | pIC50 [1] | pIC50 [2, 3] | pIC50 [2, 4]
1 | CCN(CC)CCCCNC(=O)c1nc[nH]c1C(=O)Nc1ccc(NC(=O)c2ccc(F)cc2Cl)cc1 [Example 393, N^5-{4-[(2-chloro-4-fluorobenzoyl)amino]phenyl}-N^4-[4-(diethylamino)butyl]-1H-imidazole-4,5-dicarboxamide] | 6.12 | 6.06 | –
2 | CNC(=O)c1nc[nH]c1C(=O)Nc1ccc(NC(=O)c2ccc(F)c(Cl)c2F)cc1 [Example 359, N^5-{4-[(3-chloro-2,4-difluorobenzoyl)amino]phenyl}-N^4-methyl-1H-imidazole-4,5-dicarboxamide] | < 5.00 | 5.07 | –
3 | O=C(Nc1ccc(NC(=O)c2[nH]cnc2C(=O)NCCC2CC2)cc1)c1ccc(F)cc1Cl [Example 43, N^5-{4-[(2-chloro-4-fluorobenzoyl)amino]phenyl}-N^4-(2-cyclopropylethyl)-1H-imidazole-4,5-dicarboxamide] | < 5.00 | 6.28 | –
4 | CNC(=O)c1nc[nH]c1C(=O)Nc1ccc(NC(=O)c2ccccc2OC)cc1 [Example 60, N^5-{4-[(2-methoxybenzoyl)amino]phenyl}-N^4-methyl-1H-imidazole-4,5-dicarboxamide] | < 5.00 | 4.81 | –
5 | CCN1CCC[C@@H]1CNC(=O)c1nc[nH]c1C(=O)Nc1ccc(NC(=O)c2ccc(F)cc2Cl)cc1 [Example 413, N^5-{4-[(2-chloro-4-fluorobenzoyl)amino]phenyl}-N^4-{[(2R)-1-ethylpyrrolidin-2-yl]methyl}-1H-imidazole-4,5-dicarboxamide] | 7.05 | 6.15 | –
6 | CNC(=O)c1nc[nH]c1C(=O)Nc1ccc(NC(=O)c2cc(Br)ccc2Cl)cc1 [Example 313, N^5-{4-[(5-bromo-2-chlorobenzoyl)amino]phenyl}-N^4-methyl-1H-imidazole-4,5-dicarboxamide] | 6.00 | 6.39 | –
7 | CC(C)N(CCNC(=O)c1nc[nH]c1C(=O)Nc1ccc(NC(=O)c2ccc(F)cc2Cl)cc1)C(C)C [Example 389, N^5-{4-[(2-chloro-4-fluorobenzoyl)amino]phenyl}-N^4-{2-[di(propan-2-yl)amino]ethyl}-1H-imidazole-4,5-dicarboxamide] | 6.55 | 6.12 | –
8 | O=C(Nc1ccc(NC(=O)c2[nH]cnc2C(=O)NCCc2ccccc2)cc1)c1ccc(F)cc1Cl [Example 384, N^5-{4-[(2-chloro-4-fluorobenzoyl)amino]phenyl}-N^4-(2-phenylethyl)-1H-imidazole-4,5-dicarboxamide] | 5.77 | 5.72 | –
9 | O=C(Nc1ccc(NC(=O)c2[nH]cnc2C(=O)NCCC2CCCC2)cc1)c1cc(F)c(F)cc1Cl [Example 48, N^5-{4-[(2-chloro-4,5-difluorobenzoyl)amino]phenyl}-N^4-(2-cyclopentylethyl)-1H-imidazole-4,5-dicarboxamide] | < 5.00 | 5.58 | –
10 | O=C(Nc1ccc(NC(=O)c2[nH]cnc2C(=O)NCCN2CCCCC2)cc1)c1ccc(F)cc1Cl [Example 32, N^4-{4-[(2-chloro-4-fluorobenzoyl)amino]phenyl}-N^5-[2-(piperidin-1-yl)ethyl]-1H-imidazole-4,5-dicarboxamide] | 9.52 | 7.70 | 7.70
11 | Cc1nc(C(=O)Nc2ccc(NC(=O)c3ccc(F)cc3Cl)cc2)c(C(=O)NCCN2CCCCC2)[nH]1 [Example 67, N^4-{4-[(2-chloro-4-fluorobenzoyl)amino]phenyl}-2-methyl-N^5-[2-(piperidin-1-yl)ethyl]-1H-imidazole-4,5-dicarboxamide] | 7.52 | 7.15 | –
12 | O=C(Nc1ccc(NC(=O)c2nc[nH]c2C(=O)NCCN2CCCCC2)cc1)c1ccccc1Cl [Example 381, N^4-{4-[(2-chlorobenzoyl)amino]phenyl}-N^5-[2-(piperidin-1-yl)ethyl]-1H-imidazole-4,5-dicarboxamide] | 7.70 | 7.10 | –
13 | CNC(=O)c1nc[nH]c1C(=O)Nc1ccc(NC(=O)c2ncccc2C)cc1 [Example 356, N^4-methyl-N^5-(4-{[(3-methylpyridin-2-yl)carbonyl]amino}phenyl)-1H-imidazole-4,5-dicarboxamide] | 6.03 | 6.14 | –
14 | CN(C)CCNC(=O)c1nc[nH]c1C(=O)Nc1ccc(NC(=O)c2ccc(F)cc2Cl)cc1 [Example 22, N^4-{4-[(2-chloro-4-fluorobenzoyl)amino]phenyl}-N^5-[2-(dimethylamino)ethyl]-1H-imidazole-4,5-dicarboxamide] | 7.70 | 6.85 | 6.89
15 | O=C(Nc1ccc(NC(=O)c2[nH]cnc2C(=O)NCCc2cccnc2)cc1)c1ccc(F)cc1Cl [Example 405, N^5-{4-[(2-chloro-4-fluorobenzoyl)amino]phenyl}-N^4-[2-(pyridin-3-yl)ethyl]-1H-imidazole-4,5-dicarboxamide] | 7.00 | 6.15 | –
16 | CNC(=O)c1nc[nH]c1C(=O)Nc1ccc(NC(=O)c2cc(C)ccn2)cc1 [Example 363, N^4-methyl-N^5-(4-{[(4-methylpyridin-2-yl)carbonyl]amino}phenyl)-1H-imidazole-4,5-dicarboxamide] | < 5.00 | 4.30 | –
17 | CNC(=O)c1nc[nH]c1C(=O)Nc1ccc(NC(=O)c2ccccc2Cl)c(F)c1 [Example 80, N^5-{4-[(2-chlorobenzoyl)amino]-3-fluorophenyl}-N^4-methyl-1H-imidazole-4,5-dicarboxamide] | 6.15 | 6.09 | –
18 | O=C(Nc1ccc(NC(=O)c2[nH]cnc2C(=O)NCCc2ccncc2)cc1)c1ccc(F)cc1Cl [Example 394, N^5-{4-[(2-chloro-4-fluorobenzoyl)amino]phenyl}-N^4-[2-(pyridin-4-yl)ethyl]-1H-imidazole-4,5-dicarboxamide] | 7.22 | 6.15 | –
